Assay results as given in PMC7170309, “Imidazopyridine-fused [1,3]diazepinones: modulations of positions 2 to 4 and their impacts on the anti-melanoma activity” (Journal of Enzyme Inhibition and Medicinal Chemistry, 2020).
Blank lines part the entries; values can stand above or below the compound they belong to.

What was measured:
[1] = test system: MDA-MB-435 melanoma cells; assay: Neutral red uptake (NRU) viability assay, MDA-MB-435; assay type: cell-based, human; settings: Homo sapiens, MDA-MB-435; NRU assay, 72 h, mean ± SD of three experiments
Procedure: Melanoma human cancer cell line (A375 and MDA-MB-435) were obtained from ATCC. The NIH-3T3 cell line was generously gifted by the ANSM (French National Agency for Medicines and Health Products Safety, Vendargues, France). Cells were cultured in Dulbecco’s Modified Eagle Medium (DMEM, Sigma Aldrich) supplemented with 10% heat-inactivated foetal calf serum (FCS, Gibco), 2 mM glutamax (Gibco), 100 IU/mL penicillin G sodium (Sigma Aldrich), 100 lU/mL streptomycin sulphate (Sigma Aldrich). The cells were allowed to grow at 37 °C in a fully humidified atmosphere containing 5% CO2.
A viability assay was used to evaluate the cytotoxic activity on A375 and MDA-MB-435 melanoma cells as previously described. According to OCDE/ICCVAM guidance n°129, NRU assay was also used to evaluate the toxicity on the non-cancerous NIH-3T3 cells. Cells were seeded at a final concentration of 2000 cells/well (A375), 3000 cells/well (NIH-3T3) or 7500 cells/well (MDA-MB-435) in 96-well microtiter plates for 24 h. Then, cells were exposed to two negative controls (1% DMSO in culture medium (vehicle) and culture medium alone), or to different compounds freshly dissolved in DMSO, in a range of concentration from 0.01 to 40 µM (six wells per concentration). After 72 h of incubation, cells were stained with new medium containing 50 µg/mL of neutral red (3-amino-7-dimethylamino-2-methylphenazine hydrochloride, Sigma Aldrich) at 37 °C for 2 h. The neutral red medium solution was then removed and the wells were washed with PBS. Finally, 100 µL of solution containing ethanol, acetic acid and water (50/1/49 v/v/v respectively) were added into the wells and the absorbance was measured at 540 nm using the microplate reader 352 Multiscan MS (Labsystems). Cell survival rates were normalised to the absorbance values of untreated control cells. IC50 was obtained using a logistic regression model on Graphpad Prism 5.0 software. Results are given as the mean ± standard deviation (SD) of three independent experiments. Statistical analysis was performed using the Student’s t-test.

[2] = test system: NCI-60 cancer cell line panel; assay: NCI-60 SRB assay, whole panel; assay type: cell-based, human; settings: 10 µM, 48 h
Procedure: (§1) Primary anticancer assay was performed on a panel of 60 human cancer cell lines derived from nine neoplastic diseases, in accordance with the protocol of the Drug Evaluation Branch, National Cancer Institute, Bethesda, Maryland, USA[22]. Cells were incubated with tested compounds at 10 µM for 48 h. The growth percentage was evaluated spectrophotometrically using a protein binding dye, SRB. Results for each tested compound were reported as the percent of growth of treated cells when compared to untreated control cells.
(§2) To better compare the activity profile of these two series of compounds, compounds 5 and 8 were selected and then evaluated towards a panel of sixty cancer cell lines corresponding to nine different cancer types, i.e. leukaemia, melanoma, as well as lung, colon, central nervous system, ovarian, renal, prostate and breast cancers (NCI evaluation). Indeed, it is now well established that the growth inhibitory patterns of anticancer drugs against the NCI-60 cell line panel correlated well with their modes of action. For example, compounds that bind to tubulin have similar growth inhibition patterns regardless of which site on tubulin they bind[30]. […] Compounds were tested using the sulforhodamine B (SRB) assay that provides a direct cell density index. The amount of dye incorporated by the cells increases with the increase of the total protein biomass. Cells were incubated for 48 h with compounds at 10 µM concentration, then cell growth was evaluated spectrophotometrically and presented as the percent of untreated control cells. Values of the most sensitive cell lines were compared to those obtained with JMV5038 (Figure 4, for all data see SI).

NCI-H23 = assay: NCI-60 SRB assay, NCI-H23 (NSCLC); assay type: cell-based, human; settings: 10 µM, 48 h; for G%: growth vs untreated control
Procedure: as §1, §2

HCT-15 = assay: NCI-60 SRB assay, HCT-15 (Colon Cancer); assay type: cell-based, human; settings: 10 µM, 48 h; for G%: growth vs untreated control
Procedure: as §1, §2

SF-268 = assay: NCI-60 SRB assay, SF-268 (CNS Cancer); assay type: cell-based, human; settings: 10 µM, 48 h; for G%: growth vs untreated control
Procedure: as §1, §2

MALME-3M = assay: NCI-60 SRB assay, MALME-3M (Melanoma); assay type: cell-based, human; settings: 10 µM, 48 h; for G%: growth vs untreated control
Procedure: as §1, §2

M14 = assay: NCI-60 SRB assay, M14 (Melanoma); assay type: cell-based, human; settings: 10 µM, 48 h; for G%: growth vs untreated control
Procedure: as §1, §2

MDA-MB-435 = assay: NCI-60 SRB assay, MDA-MB-435 (Melanoma); assay type: cell-based, human; settings: MDA-MB-435, 10 µM, 48 h, SRB; for G%: growth vs untreated control;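 for Mean G% - G%: mean growth across the NCI-60 panel minus this line's growth with positive meaning more sensitive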
Procedure: as §1, §2

SK-MEL-28 = assay: NCI-60 SRB assay, SK-MEL-28 (Melanoma); assay type: cell-based, human; settings: 10 µM, 48 h; for G%: growth vs untreated control
Procedure: as §1, §2

SK-MEL-5 = assay: NCI-60 SRB assay, SK-MEL-5 (Melanoma); assay type: cell-based, human; settings: 10 µM, 48 h; for G%: growth vs untreated control
Procedure: as §1, §2

UACC-62 = assay: NCI-60 SRB assay, UACC-62 (Melanoma); assay type: cell-based, human; settings: 10 µM, 48 h; for G%: growth vs untreated control
Procedure: as §1, §2

OVCAR-3 = assay: NCI-60 SRB assay, OVCAR-3 (Ovarian Cancer); assay type: cell-based, human; settings: 10 µM, 48 h; for G%: growth vs untreated control;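 for Mean G% - G%: mean growth across the NCI-60 panel minus this line's growth with positive meaning more sensitive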
Procedure: as §1, §2

OVCAR-4 = assay: NCI-60 SRB assay, OVCAR-4 (Ovarian Cancer); assay type: cell-based, human; settings: 10 µM, 48 h; for G%: growth vs untreated control;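 for Mean G% - G%: mean growth across the NCI-60 panel minus this line's growth with positive meaning more sensitive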
Procedure: as §1, §2

OVCAR-8 = assay: NCI-60 SRB assay, OVCAR-8 (Ovarian Cancer); assay type: cell-based, human; settings: 10 µM, 48 h; for G%: growth vs untreated control;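 for Mean G% - G%: mean growth across the NCI-60 panel minus this line's growth with positive meaning more sensitive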
Procedure: as §1, §2

SK-OV-3 = assay: NCI-60 SRB assay, SK-OV-3 (Ovarian Cancer); assay type: cell-based, human; settings: 10 µM, 48 h; for G%: growth vs untreated control
Procedure: as §1, §2

786-0 = assay: NCI-60 SRB assay, 786-0 (Renal Cancer); assay type: cell-based, human; settings: 10 µM, 48 h; for G%: growth vs untreated control
Procedure: as §1, §2

A498 = assay: NCI-60 SRB assay, A498 (Renal Cancer); assay type: cell-based, human; settings: 10 µM, 48 h; for G%: growth vs untreated control
Procedure: as §1, §2

UO-31 = assay: NCI-60 SRB assay, UO-31 (Renal Cancer); assay type: cell-based, human; settings: 10 µM, 48 h; for G%: growth vs untreated control
Procedure: as §1, §2

PC-3 = assay: NCI-60 SRB assay, PC-3 (Prostate Cancer); assay type: cell-based, human; settings: 10 µM, 48 h; for G%: growth vs untreated control
Procedure: as §1, §2

DU-145 = assay: NCI-60 SRB assay, DU-145 (Prostate Cancer); assay type: cell-based, human; settings: 10 µM, 48 h; for G%: growth vs untreated control
Procedure: as §1, §2

MDA-MB-231 = assay: NCI-60 SRB assay, MDA-MB-231 (Breast Cancer); assay type: cell-based, human; settings: 10 µM, 48 h; for G%: growth vs untreated control
Procedure: as §1, §2

MDA-MB-468 = assay: NCI-60 SRB assay, MDA-MB-468 (Breast Cancer); assay type: cell-based, human; settings: 10 µM, 48 h; for G%: growth vs untreated control
Procedure: as §1, §2

Structure (SMILES): [N-]=[N+]=NCCCC[C@@H]1NC(c2ccc(Br)cc2)=Nc2nc3ccccn3c2C1=O [Compound 16, (4S)-4-(4-azidobutyl)-2-(4-bromophenyl)-3,4-dihydro-5H-pyrido[1’,2’:1,2]imidazo[4,5-d][1,3]diazepin-5-one]
IC50 [1]: 4120 ± 220 nM
Mean G% (mean growth over the panel) [2]: 91.77%
Mean G% - G% (NCI-H23): -7,34%
G% (NCI-H23): 99,11%
Mean G% - G% (HCT-15): -6,56%
G% (HCT-15): 98,33%
Mean G% - G% (SF-268): 1,04%
G% (SF-268): 90,73%
Mean G% - G% (MALME-3M): -22,73%
G% (MALME-3M): 114,50%
Mean G% - G% (M14): -14,11%
G% (M14): 105,88%
Mean G% - G% (MDA-MB-435): -13,77%
G% (MDA-MB-435): 105,54%
Mean G% - G% (SK-MEL-28): -18,13%
G% (SK-MEL-28): 109,90%
Mean G% - G% (SK-MEL-5): 3,83%
G% (SK-MEL-5): 87,94%
Mean G% - G% (UACC-62): 11,94%
G% (UACC-62): 79,83%
Mean G% - G% (OVCAR-3): -11,51%
G% (OVCAR-3): 103,28%
Mean G% - G% (OVCAR-4): -2,91%
G% (OVCAR-4): 94,68%
Mean G% - G% (OVCAR-8): 6,78%
G% (OVCAR-8): 84,99%
Mean G% - G% (SK-OV-3): 5,78%
G% (SK-OV-3): 85,99%
Mean G% - G% (786-0): 0,98%
G% (786-0): 90,79%
Mean G% - G% (A498): 8,90%
G% (A498): 82,87%
Mean G% - G% (UO-31): 27,99%
G% (UO-31): 63,78%
Mean G% - G% (PC-3): -10,51%
G% (PC-3): 102,28%
Mean G% - G% (DU-145): -10,18%
G% (DU-145): 101,95%
Mean G% - G% (MDA-MB-231): 16,73%
G% (MDA-MB-231): 75,04%
Mean G% - G% (MDA-MB-468): -6,46%
G% (MDA-MB-468): 98,23%
melting point: 127 to 128 °C

IC50 [1]: 1300 ± 530 nM
Structure (SMILES): C[C@@H]1NC(c2ccc(Br)cc2)=Nc2nc3ccccn3c2C1=O [JMV5038]
Mean G% (mean growth over the panel) [2]: 54,24%
Mean G% - G% (NCI-H23): 0,57%
G% (NCI-H23): 53,67%
Mean G% - G% (HCT-15): 23,49%
G% (HCT-15): 30,75%
Mean G% - G% (SF-268): -29,20%
G% (SF-268): 83,44%
Mean G% - G% (MALME-3M): 2,49%
G% (MALME-3M): 51,75%
Mean G% - G% (M14): 22,48%
G% (M14): 31,76%
Mean G% - G% (MDA-MB-435): 67,26%
G% (MDA-MB-435): -13,02%
Mean G% - G% (SK-MEL-28): -11,91%
G% (SK-MEL-28): 66,15%
Mean G% - G% (SK-MEL-5): 22,34%
G% (SK-MEL-5): 31,90%
Mean G% - G% (UACC-62): 5,01%
G% (UACC-62): 49,23%
Mean G% - G% (OVCAR-3): 36,95%
G% (OVCAR-3): 17,29%
Mean G% - G% (OVCAR-4): -23,22%
G% (OVCAR-4): 77,46%
Mean G% - G% (OVCAR-8): -18,28%
G% (OVCAR-8): 72,52%
Mean G% - G% (SK-OV-3): -17,78%
G% (SK-OV-3): 72,02%
Mean G% - G% (786-0): -28,86%
G% (786-0): 83,10%
Mean G% - G% (A498): -15,64%
G% (A498): 69,88%
Mean G% - G% (UO-31): -7,77%
G% (UO-31): 62,01%
Mean G% - G% (PC-3): -8,96%
G% (PC-3): 63,20%
Mean G% - G% (DU-145): -33,50%
G% (DU-145): 87,74%
Mean G% - G% (MDA-MB-231): 1,53%
G% (MDA-MB-231): 52,71%
Mean G% - G% (MDA-MB-468): 54,74%
G% (MDA-MB-468): -0,50%
